Results as given in US20100323990A1, “SHIP 1 MODULATOR PRODRUGS” (THE UNIVERSITY OF BRITISH COLUMBIA, priority 2006, published 2010).

Key:
J774.1a macrophage cells [1] = experiment: Macrophage TNF-α production (Assay 2); assay type: cell-based; details: 10 μg/mL test compound, 100 ng/mL LPS, supernatants after 2 hr and 5 hr; also: key: a ‘+’ indicates a positive result for desired activity; a ‘−’ indicates a negative result for desired activity
Experimental: (§1) Assay 1) In vitro testing in a SHIP enzyme assay. Test compounds were dissolved in a suitable solvent (e.g. EtOH, DMSO and others) and diluted into aqueous buffer (20 mM Tris HCl, pH 7.5 and 10 mM MgCl2). SHIP enzyme assays were performed in 96-well microtitre plates with 10 ng of enzyme/well in a total volume of 25 μL of 20 mM Tris HCl, pH 7.5 and 10 mM MgCl2. SHIP enzyme was incubated with test extracts (provided in solvent) or vehicle for 15 min at 23° C. before the addition of 100 μM inositol-1,3,4,5-tetrakisphosphate (Echelon Biosciences Inc, Salt Lake City, Utah). After 20 min at 37° C. and the amount of inorganic phosphate released assessed by the addition of Malachite Green reagent and absorbance measurement at 650 nm. Assay 2) Macrophage TNF-α production. J774.1a macrophage cells were treated with 10 μg/mL of test compound dissolved in solvent (e.g. cyclodextran) for 40 minutes prior to the addition of 100 ng/mL LPS. Culture supernatants were collected after 2 hr and 5 hr for TNF-α determination by ELISA. Assay 3) Macrophage TNF-α NO assay. J774.1a macrophage cells were treated with 10 μg/ml of test compound dissolved in solvent for 40 minutes prior to the addition of LPS. Culture supernatants were collected after 24 hr. for determination of NO concentration using the Griess reagent. Assay 4) Stimulation of mast cells by FcεRI crosslinking. Mast cells were pre-loaded overnight in BMMC medium lacking IL-3 with 0.1 μg/ml anti-DNP IgE (SPE-7, Sigma, Oakville, Ont). For calcium flux measurements, cells were incubated with 2 μM fura 2-acetoxymethyl ester (Molecular Probes, Eugene, Oreg.) in Tyrode's buffer at 23° C. for 45 min. Cells were then washed and incubated in the presence of the test compound 30 min prior to stimulation with the indicated concentration of DNP-human serum albumin (DNP-HSA). Calcium influx was monitored by spectrofluorometry as described previously. For analysis of intracellular signaling, cells were pre-loaded with anti-DNP IgE as above, pre-treated with the test compound for 30 min at 37° C. and stimulated with 20 ng/ml DNP-HSA for 5 min. Total cell lysates were then prepared and analyzed for phospho-PKB, phospho-p38^MAPK, phospho-MAPK, Grb-2 (Cell Signalling, Mississauga, Ont) and SHIP^6 by immunoblot analysis. Assay 5) Mouse acute cutaneous anaphylaxis model. 6-8 week old CD1 mice (University of British Columbia Animal Facility, Vancouver, BC) were sensitized to the hapten DNP by cutaneous application of 25 μL of 0.5% dinitrofluorobenzene (DNFB) (Sigma, Oakville, Ont) in acetone to the shaved abdomen of mice for two consecutive days. 24 hrs later, test substances (dissolved in 10 μL of 1:2 DMSO:MeOH) were painted on the right ear while the left ear received vehicle control. 30 min after drug application, DNFB was applied to both ears to induce mast cell degranulation. A 6 mm punch was taken from the ear and immediately frozen on dry ice for subsequent determination of neutrophil myeloperoxidase (MPO) activity. Assay 6) Mouse endotoxemia model. 6-8 week old C57B16 mice (VCHRI Mammalian Model of Human Disease Core Facility, Vancouver, BC) were orally administered the test compound 30 min prior to an IP injection of 2 mg/kg of LPS (E. Coli serotype 0111:B4, Sigma, Oakville, Ont). Blood was drawn 2 hrs later for determination of plasma TNFα by ELISA. Assay 7) In vitro Mulitple Myeloma (MM) assay. The ability of SHIP activators to reduce tumor cell survival was assessed in MM cell lines treated with the test compound. The lines OPM1, OPM2, MM.1S and RPMI 8226 were plated at a density of 1×10^5 cells/mL in 200 μL of medium with various concentrations of the test compound, and viable cell numbers were determined on day 3 and day 5 by trypan blue exclusion. The lines RPMI 8226 and U266 were plated at a density of 1×10^6 cells/mL in 250 μL of medium with various concentrations of the test compound. At day 4, the medium of each culture was replaced by fresh medium containing the same concentration of test compound. […]

SHIP enzyme = experiment: In vitro SHIP enzyme assay (Assay 1), phosphate release by Malachite Green; assay type: biochemical; details: 10 ng enzyme/well, 100 μM inositol-1,3,4,5-tetrakisphosphate; also: key: a ‘+’ indicates a positive result for desired activity; a ‘−’ indicates a negative result for desired activity
Experimental: as §1

J774.1a macrophage cells [2] = experiment: Macrophage TNF-α NO assay (Assay 3), Griess reagent; assay type: cell-based; details: 10 μg/ml test compound, LPS, supernatants after 24 hr; also: key: a ‘+’ indicates a positive result for desired activity; a ‘−’ indicates a negative result for desired activity
Experimental: as §1

MM cell lines = experiment: In vitro Multiple Myeloma (MM) assay (Assay 7); assay type: cell-based; details: viable cell number by trypan blue; [3H]-thymidine; also: key: a ‘+’ indicates a positive result for desired activity; a ‘−’ indicates a negative result for desired activity
Experimental: as §1

Mast cells = experiment: Stimulation of mast cells by FcεRI crosslinking (Assay 4); assay type: cell-based; details: test compound 30 min prior to DNP-HSA
Experimental: as §1, with “6-8 week old CD1 mice (University of British Columbia Animal Facility, Vancouver, BC) were sensitized to the hapten DNP by cutaneous application of 25 μL of 0.5% dinitrofluorobenzene (DNFB) (Sigma, Oakville, Ont) in acetone to the shaved abdomen of mice for two consecutive days. 24 hrs later, test substances (dissolved in 10 μL of 1:2 DMSO:MeOH) were painted on the right ear while the left ear received vehicle control. 30 min after drug application, DNFB was applied to both ears to induce mast cell degranulation. A 6 mm punch was taken from the ear and immediately frozen on dry ice for subsequent determination of neutrophil myeloperoxidase (MPO) activity. Assay 6) Mouse endotoxemia model. 6-8 week old C57B16 mice (VCHRI Mammalian Model of Human Disease Core Facility, Vancouver, BC) were orally administered the test compound 30 min prior to an IP injection of 2 mg/kg of LPS (E. Coli serotype 0111:B4, Sigma, Oakville, Ont). Blood was drawn 2 hrs later for determination of plasma TNFα by ELISA. Assay 7) In vitro Mulitple Myeloma (MM) assay.” left out, “exclusion.” for “exclusion. The lines RPMI 8226 and U266 were plated at a density of 1×10^6 cells/mL in 250 μL of medium with various concentrations of the test compound. At day 4, the medium of each culture was replaced by fresh medium containing the same concentration of test compound.”

plasma TNFα = experiment: Mouse endotoxemia model (Assay 6), plasma TNFα by ELISA; assay type: in vivo, mice; details: oral, 30 min prior to IP 2 mg/kg LPS, plasma TNFα 2 hrs later
Experimental: as §1, with “6-8 week old C57B16 mice (VCHRI Mammalian Model of Human Disease Core Facility, Vancouver, BC) were orally administered the test compound 30 min prior to an IP injection of 2 mg/kg of LPS (E. Coli serotype 0111:B4, Sigma, Oakville, Ont). Blood was drawn 2 hrs later for determination of plasma TNFα by ELISA. Assay 7) In vitro Mulitple Myeloma (MM) assay.” left out, “exclusion.” for “exclusion. The lines RPMI 8226 and U266 were plated at a density of 1×10^6 cells/mL in 250 μL of medium with various concentrations of the test compound. At day 4, the medium of each culture was replaced by fresh medium containing the same concentration of test compound.”

Structure (SMILES)	Assay 2: Macrophage TNF-α production, desired activity (J774.1a macrophage cells [1])	Assay 1: SHIP enzyme assay, desired activity (SHIP enzyme)	Assay 3: Macrophage NO assay, desired activity (J774.1a macrophage cells [2])	Assay 7: In vitro Multiple Myeloma (MM) assay, desired activity (MM cell lines)	Assay 4: Stimulation of mast cells by FcεRI crosslinking, desired activity (Mast cells)	Assay 6: Mouse endotoxemia model, desired activity (plasma TNFα)
CCc1cc(O)c(O)c2c1[C@]1(C)CCC3C(C)(C)CCC[C@]3(C)[C@H]1C2 (stereo partly drawn) [Compound 18A]	+	+	+			
CC1(C)CCC[C@@]2(C)C1CC[C@@]1(C)c3c(C(=O)O)cc(O)c(O)c3C[C@@H]12 (stereo partly drawn)	+	+	+			
COc1ccc2c(c1O)C[C@@H]1[C@@]3(C)CCCC(C)(C)[C@@H]3CC[C@@]21C [Compound 118]	−		+	+		
Cc1cc(OC(=O)C(N)Cc2cnc[nH]2)cc2c1[C@]1(C)CCC3C(C)(C)CCC[C@]3(C)[C@H]1C2 (stereo partly drawn) [Compound 123]	+		+			
CC1(C)CCC[C@]2(C)[C@H]3Cc4cc(O)cc(O)c4[C@]3(C)CC[C@@H]12 [Compound 115]				+		
CC1(C)CCC[C@]2(C)[C@H]3Cc4cc(O)ccc4[C@]3(C)CC[C@@H]12 [Compound 121]	+		+	+		
Cc1cc2c(cc1O)C[C@@H]1[C@@]3(C)CCCC(C)(C)[C@@H]3CC[C@@]21C [Compound 101]	+		+	+		
COc1cc(O)cc2c1[C@]1(C)CC[C@H]3C(C)(C)CCC[C@]3(C)[C@H]1C2 [Compound 117]	+		+	+		
CC(=O)Oc1cc(C)c2c(c1)C[C@H]1[C@@]2(C)CCC2C(C)(C)CCC[C@@]21C (stereo partly drawn) [Compound 102]	+		+			
Cc1cc(O)c2c(c1)C[C@@H]1[C@@]3(C)CCCC(C)(C)[C@@H]3CC[C@@]21C [Compound 122]	−		+	+		
Cc1cc(O)cc2c1[C@@]1(C)CCC3C(C)(C)CCC[C@]3(C)[C@H]1C2 (stereo partly drawn) [Compound 125]	+		+	+	+	
Cc1cc(OC(=O)C(CC(=O)O)NC(=O)CCC(=O)O)cc2c1[C@]1(C)CCC3C(C)(C)CCC[C@]3(C)[C@H]1C2 (stereo partly drawn) [Compound 114]	+		+			+
Cc1cc(OP(=O)(O)O)cc2c1[C@]1(C)CCC3C(C)(C)CCC[C@]3(C)[C@H]1C2 (stereo partly drawn) [Compound 109]	−		+	+		
Cc1cc(OC(=O)C(N)CCCNC(=N)N)cc2c1[C@]1(C)CCC3C(C)(C)CCC[C@]3(C)[C@H]1C2 (stereo partly drawn) [Compound 105]	+		+			
COC(=O)c1cc(O)c(O)c2c1[C@@]1(C)CCC3C(C)(C)CCC[C@]3(C)[C@H]1C2 (stereo partly drawn)		+	+			
Cc1cc(O)cc2c1[C@]1(C)CCC3C(C)(C)CCC[C@]3(C)[C@@H]1C2 (stereo partly drawn) [Compound 124]	+		+	+	+	
COC(=O)c1cc(O)c(O)c2c1[C@]1(C)CCC3C(C)(C)CCC[C@]3(C)[C@@H]1C2 (stereo partly drawn)		+	+			
COC(=O)c1cc(O)c(O)c2c1[C@]1(C)CCC3C(C)(C)CCC[C@]3(C)[C@H]1C2 (stereo partly drawn)		+	+			
COc1cc(C)c2c(c1O)C[C@@H]1[C@@]3(C)CCCC(C)(C)[C@@H]3CC[C@@]21C [Compound 129]	−		+			
Cc1cc(O)c(O)c2c1[C@@]1(C)CCC3C(C)(C)CCC[C@]3(C)[C@H]1C2 (stereo partly drawn)		+				
